Experimental data as given in the supplement of paper PMC10733146.

What was measured:
Assay in all cases: viability relative to DMSO control (fraction); higher = less drug effect (more viable cells)
Conditions in all cases: 48 h
[1] = system: primary AML patient cells (S019)
Summary of the method: (§1)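 Cells were incubated for 48 h at 37 °C and 5% CO2 in RPMI-1640 with penicillin/streptomycin, L-glutamine and human serum, at 4 × 10^4 cells per well in 384-well plates with compounds pre-plated at five concentrations, one well each. These were primary mononuclear tumour cells, fresh or cryopreserved, Ficoll-isolated from blood or bone marrow or obtained from processed lymph node. Viability values are CellTiter-Glo luminescence relative to the median of 16 inner DMSO wells.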

[2] = system: primary AML patient cells (S017)
Summary of the method: as §1

[3] = system: primary AML patient cells (S021)
Summary of the method: as §1

[4] = system: primary DLBCL patient cells (S049)
Summary of the method: as §1

[5] = system: primary AML patient cells (S085)
Summary of the method: as §1

[6] = system: primary BL patient cells (S005)
Summary of the method: as §1

[7] = system: primary AML patient cells (S081)
Summary of the method: as §1

[8] = system: primary AML patient cells (S027)
Summary of the method: as §1

[9] = system: primary DLBCL patient cells (S076)
Summary of the method: as §1

[10] = system: primary T-NHL patient cells (S058)
Summary of the method: as §1

[11] = system: primary ALL patient cells (S088)
Summary of the method: as §1

[12] = system: primary CLL patient cells (S043)
Summary of the method: as §1

[13] = system: primary AML patient cells (S025)
Summary of the method: as §1

[14] = system: primary AML patient cells (S002)
Summary of the method: as §1

[15] = system: primary AML patient cells (S011)
Summary of the method: as §1

[16] = system: primary B-PLL patient cells (S016)
Summary of the method: as §1

[17] = system: primary AML patient cells (S060)
Summary of the method: as §1

[18] = system: primary AML patient cells (S071)
Summary of the method: as §1

[19] = system: primary AML patient cells (S007)
Summary of the method: as §1

Work on `Cc1sc2c(c1C)C(c1ccc(Cl)cc1)=N[C@@H](CC(=O)Nc1ccc(O)cc1)c1nnc(C)n1-2` [OTX015] yielded a viability ([1]; 0.016 µM) of 1.14, a viability ([1]; 0.08 µM) of 1.12 and a viability ([1]; 0.4 µM) of 1.08. The viability ([1]; 2 µM) was 0.985, the viability ([1]; 10 µM) was 0.965 and the viability ([2]; 0.016 µM) was 0.96. It also gave a viability ([2]; 0.08 µM) of 0.937, a viability ([2]; 0.4 µM) of 0.573 and a viability ([2]; 2 µM) of 0.391. For the same compound, the viability ([2]; 10 µM) was 0.354, the viability ([3]; 0.016 µM) was 0.937 and the viability ([3]; 0.08 µM) was 1.02. It also gave a viability ([3]; 0.4 µM) of 0.894, a viability ([3]; 2 µM) of 0.815 and a viability ([3]; 10 µM) of 0.634. The viability ([4]; 0.016 µM) was 1.02, the viability ([4]; 0.08 µM) was 0.891 and the viability ([4]; 0.4 µM) was 0.482. It also gave a viability ([4]; 2 µM) of 0.2, a viability ([4]; 10 µM) of 0.119 and a viability ([5]; 0.016 µM) of 0.861. It also gave a viability ([5]; 0.08 µM) of 0.614, a viability ([5]; 0.4 µM) of 0.312 and a viability ([5]; 2 µM) of 0.191. For the same compound, the viability ([5]; 10 µM) was 0.178, the viability ([6]; 0.016 µM) was 0.977 and the viability ([6]; 0.08 µM) was 0.911. For the same compound, the viability ([6]; 0.4 µM) was 0.818, the viability ([6]; 2 µM) was 0.758 and the viability ([6]; 10 µM) was 0.802. It also gave a viability ([7]; 0.016 µM) of 0.847, a viability ([7]; 0.08 µM) of 0.793 and a viability ([7]; 0.4 µM) of 0.475. It also gave a viability ([7]; 2 µM) of 0.257, a viability ([7]; 10 µM) of 0.205 and a viability ([8]; 0.016 µM) of 0.93. The viability ([8]; 0.08 µM) was 0.894, the viability ([8]; 0.4 µM) was 0.73 and the viability ([8]; 2 µM) was 0.536. The viability ([8]; 10 µM) was 0.408, the viability ([9]; 0.016 µM) was 1.05 and the viability ([9]; 0.08 µM) was 0.942. The viability ([9]; 0.4 µM) was 0.802, the viability ([9]; 2 µM) was 0.699 and the viability ([9]; 10 µM) was 0.6. It also gave a viability ([10]; 0.016 µM) of 1.09, a viability ([10]; 0.08 µM) of 0.875 and a viability ([10]; 0.4 µM) of 0.764. The viability ([10]; 2 µM) was 0.576, the viability ([10]; 10 µM) was 0.591 and the viability ([11]; 0.016 µM) was 0.862. The viability ([11]; 0.08 µM) was 0.726, the viability ([11]; 0.4 µM) was 0.448 and the viability ([11]; 2 µM) was 0.394. For the same compound, the viability ([11]; 10 µM) was 0.325, the viability ([12]; 0.016 µM) was 0.959 and the viability ([12]; 0.08 µM) was 0.963. The viability ([12]; 0.4 µM) was 0.9, the viability ([12]; 2 µM) was 0.76 and the viability ([12]; 10 µM) was 0.762. For the same compound, the viability ([13]; 0.016 µM) was 0.87, the viability ([13]; 0.08 µM) was 0.971 and the viability ([13]; 0.4 µM) was 0.767. For the same compound, the viability ([13]; 2 µM) was 0.629, the viability ([13]; 10 µM) was 0.549 and the viability ([14]; 0.016 µM) was 0.853. For the same compound, the viability ([14]; 0.08 µM) was 0.565, the viability ([14]; 0.4 µM) was 0.396 and the viability ([14]; 2 µM) was 0.315. For the same compound, the viability ([14]; 10 µM) was 0.317, the viability ([15]; 0.016 µM) was 1 and the viability ([15]; 0.08 µM) was 0.899. It also gave a viability ([15]; 0.4 µM) of 0.766, a viability ([15]; 2 µM) of 0.742 and a viability ([15]; 10 µM) of 0.758. For the same compound, the viability ([16]; 0.016 µM) was 1.06, the viability ([16]; 0.08 µM) was 1.15 and the viability ([16]; 0.4 µM) was 0.891. The viability ([16]; 2 µM) was 0.711, the viability ([16]; 10 µM) was 0.687 and the viability ([17]; 0.016 µM) was 1.01. For the same compound, the viability ([17]; 0.08 µM) was 1.03, the viability ([17]; 0.4 µM) was 0.775 and the viability ([17]; 2 µM) was 0.501. It also gave a viability ([17]; 10 µM) of 0.344, a viability ([18]; 0.016 µM) of 0.988 and a viability ([18]; 0.08 µM) of 1.08. The viability ([18]; 0.4 µM) was 0.994, the viability ([18]; 2 µM) was 0.829 and the viability ([18]; 10 µM) was 0.722. For the same compound, the viability ([19]; 0.016 µM) was 1.16, the viability ([19]; 0.08 µM) was 1.08 and the viability ([19]; 0.4 µM) was 0.561. The viability ([19]; 2 µM) was 0.335 and the viability ([19]; 10 µM) was 0.24.
Compound `CCN1CCN(Cc2ccc(Nc3ncc(F)c(-c4cc(F)c5nc(C)n(C(C)C)c5c4)n3)nc2)CC1` has a viability ([1]; 0.024 µM) of 1.18, a viability ([1]; 0.12 µM) of 0.939 and a viability ([1]; 0.6 µM) of 1.13. For the same compound, the viability ([1]; 3 µM) was 0.232, the viability ([1]; 15 µM) was 0.0632 and the viability ([2]; 0.024 µM) was 1.01. It also gave a viability ([2]; 0.12 µM) of 1.14, a viability ([2]; 0.6 µM) of 1.1 and a viability ([2]; 3 µM) of 0.73. For the same compound, the viability ([2]; 15 µM) was 0.179, the viability ([3]; 0.024 µM) was 1.01 and the viability ([3]; 0.12 µM) was 0.962. For the same compound, the viability ([3]; 0.6 µM) was 1.22, the viability ([3]; 3 µM) was 0.377 and the viability ([3]; 15 µM) was 0.0751. The viability ([5]; 0.024 µM) was 0.895, the viability ([5]; 0.12 µM) was 1.01 and the viability ([5]; 0.6 µM) was 1.22. It also gave a viability ([5]; 3 µM) of 0.265, a viability ([5]; 15 µM) of 0.0115 and a viability ([6]; 0.024 µM) of 1.01. For the same compound, the viability ([6]; 0.12 µM) was 1.61, the viability ([6]; 0.6 µM) was 0.924 and the viability ([6]; 3 µM) was 0.725. It also gave a viability ([6]; 15 µM) of 0.374, a viability ([7]; 0.024 µM) of 0.929 and a viability ([7]; 0.12 µM) of 0.868. The viability ([7]; 0.6 µM) was 0.833, the viability ([7]; 3 µM) was 0.537 and the viability ([7]; 15 µM) was 0.174. For the same compound, the viability ([8]; 0.024 µM) was 1.05, the viability ([8]; 0.12 µM) was 1.05 and the viability ([8]; 0.6 µM) was 0.953. For the same compound, the viability ([8]; 3 µM) was 0.313, the viability ([8]; 15 µM) was 0.018 and the viability ([11]; 0.024 µM) was 0.616. It also gave a viability ([11]; 0.12 µM) of 0.625, a viability ([11]; 0.6 µM) of 0.517 and a viability ([11]; 3 µM) of 0.169. The viability ([11]; 15 µM) was 0.012, the viability ([12]; 0.024 µM) was 0.893 and the viability ([12]; 0.12 µM) was 1.05. The viability ([12]; 0.6 µM) was 0.936, the viability ([12]; 3 µM) was 0.58 and the viability ([12]; 15 µM) was 0.24. It also gave a viability ([13]; 0.024 µM) of 1.11, a viability ([13]; 0.12 µM) of 1.02 and a viability ([13]; 0.6 µM) of 1.1. The viability ([13]; 3 µM) was 0.372, the viability ([13]; 15 µM) was 0.0187 and the viability ([14]; 0.024 µM) was 0.84. For the same compound, the viability ([14]; 0.12 µM) was 0.894, the viability ([14]; 0.6 µM) was 0.884 and the viability ([14]; 3 µM) was 0.363. It also gave a viability ([14]; 15 µM) of 0.139, a viability ([15]; 0.024 µM) of 1.74 and a viability ([15]; 0.12 µM) of 1.08. The viability ([15]; 0.6 µM) was 1.09, the viability ([15]; 3 µM) was 0.0537 and the viability ([15]; 15 µM) was 0.01. It also gave a viability ([16]; 0.024 µM) of 0.997, a viability ([16]; 0.12 µM) of 1.09 and a viability ([16]; 0.6 µM) of 0.984. It also gave a viability ([16]; 3 µM) of 0.505, a viability ([16]; 15 µM) of 0.0112 and a viability ([17]; 0.024 µM) of 1.08. The viability ([17]; 0.12 µM) was 1.01, the viability ([17]; 0.6 µM) was 0.946 and the viability ([17]; 3 µM) was 0.534. For the same compound, the viability ([17]; 15 µM) was 0.112, the viability ([18]; 0.024 µM) was 0.728 and the viability ([18]; 0.12 µM) was 0.533. It also gave a viability ([18]; 0.6 µM) of 0.39, a viability ([18]; 3 µM) of 0.0958 and a viability ([18]; 15 µM) of 0.0535. For the same compound, the viability ([19]; 0.024 µM) was 0.759, the viability ([19]; 0.12 µM) was 0.725 and the viability ([19]; 0.6 µM) was 0.782. For the same compound, the viability ([19]; 3 µM) was 0.668 and the viability ([19]; 15 µM) was 0.0289.
